Measurements reported in PubChem BioAssay (NCI).
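Assay format: 96-well plates, 48-hour exposure. At the GI50, growth is halved. At the TGI there is no net growth.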

How the values were obtained:
Test in all cases: NCI-60 cell line screen, 48 h
SF-295 CNS = test system: SF-295 CNS
EKVX NSCLC = test system: EKVX NSCLC
RPMI-8226 leukemia = test system: RPMI-8226 leukemia
T-47D breast = test system: T-47D breast
NCI-H226 lung = test system: NCI-H226 lung
SNB-19 CNS = test system: SNB-19 CNS
M14 melanoma = test system: M14 melanoma
HCT-116 colon = test system: HCT-116 colon
OVCAR-5 ovarian = test system: OVCAR-5 ovarian
CCRF-CEM leukemia = test system: CCRF-CEM leukemia
SK-MEL-2 melanoma = test system: SK-MEL-2 melanoma
U251 CNS = test system: U251 CNS
SK-OV-3 ovarian = test system: SK-OV-3 ovarian
SK-MEL-5 melanoma = test system: SK-MEL-5 melanoma
OVCAR-4 ovarian = test system: OVCAR-4 ovarian
MCF7 breast = test system: MCF7 breast
SW-620 colon = test system: SW-620 colon
HOP-62 NSCLC = test system: HOP-62 NSCLC
OVCAR-3 ovarian = test system: OVCAR-3 ovarian
MDA-MB-231 breast = test system: MDA-MB-231 breast
UACC-257 melanoma = test system: UACC-257 melanoma
SF-539 CNS = test system: SF-539 CNS
OVCAR-8 ovarian = test system: OVCAR-8 ovarian
HCC-2998 colon = test system: HCC-2998 colon
ACHN renal = test system: ACHN renal
NCI-H522 lung = test system: NCI-H522 lung
UACC-62 melanoma = test system: UACC-62 melanoma
A498 renal = test system: A498 renal
MDA-MB-435 = test system: MDA-MB-435
SN12C renal = test system: SN12C renal
RXF 393 renal = test system: RXF 393 renal
UO-31 renal = test system: UO-31 renal
IGROV1 ovarian = test system: IGROV1 ovarian
BT-549 breast = test system: BT-549 breast
KM12 colon = test system: KM12 colon
LOX IMVI melanoma = test system: LOX IMVI melanoma
DU-145 prostate = test system: DU-145 prostate
NCI/ADR-RES ovarian = test system: NCI/ADR-RES ovarian
SK-MEL-28 melanoma = test system: SK-MEL-28 melanoma
786-0 renal = test system: 786-0 renal
HT29 colon = test system: HT29 colon
HOP-92 NSCLC = test system: HOP-92 NSCLC
TK-10 renal = test system: TK-10 renal
A549 NSCLC = test system: A549 NSCLC
PC-3 prostate = test system: PC-3 prostate
HS 578T breast = test system: HS 578T breast
HCT-15 colon = test system: HCT-15 colon
MALME-3M melanoma = test system: MALME-3M melanoma
SNB-75 CNS = test system: SNB-75 CNS
COLO 205 colon = test system: COLO 205 colon
NCI-H460 lung = test system: NCI-H460 lung
SF-268 CNS = test system: SF-268 CNS
CAKI-1 renal = test system: CAKI-1 renal

Work on `N#Cc1nc(-c2ccccc2)oc1S(=O)(=O)N1CCCCC1` yielded a GI50 (SF-295 CNS) of over 100 µM, a TGI (SF-295 CNS) of over 100 µM and a GI50 (EKVX NSCLC) of over 100 µM. The TGI (EKVX NSCLC) was over 100 µM, the GI50 (RPMI-8226 leukemia) was 17.5 µM and the TGI (RPMI-8226 leukemia) was 49.5 µM. The GI50 (T-47D breast) was 16.2 µM, the TGI (T-47D breast) was 36.8 µM and the GI50 (NCI-H226 lung) was 10.3 µM. For the same compound, the TGI (NCI-H226 lung) was 26.5 µM, the GI50 (SNB-19 CNS) was 72.3 µM and the TGI (SNB-19 CNS) was over 100 µM. The GI50 (M14 melanoma) was 11.2 µM, the TGI (M14 melanoma) was 61 µM and the GI50 (HCT-116 colon) was 4.95 µM. For the same compound, the TGI (HCT-116 colon) was 23.6 µM, the GI50 (OVCAR-5 ovarian) was 21.9 µM and the TGI (OVCAR-5 ovarian) was 52.8 µM. For the same compound, the GI50 (CCRF-CEM leukemia) was 2.36 µM, the TGI (CCRF-CEM leukemia) was over 100 µM and the GI50 (SK-MEL-2 melanoma) was 15.3 µM. It also gave a TGI (SK-MEL-2 melanoma) of 45.1 µM, a GI50 (U251 CNS) of 17.5 µM and a TGI (U251 CNS) of 36.8 µM. The GI50 (SK-OV-3 ovarian) was over 100 µM, the TGI (SK-OV-3 ovarian) was over 100 µM and the GI50 (SK-MEL-5 melanoma) was 30.9 µM. It also gave a TGI (SK-MEL-5 melanoma) of over 100 µM, a GI50 (OVCAR-4 ovarian) of 14.2 µM and a TGI (OVCAR-4 ovarian) of 32.3 µM. The GI50 (MCF7 breast) was 9.02 µM, the TGI (MCF7 breast) was 26.9 µM and the GI50 (SW-620 colon) was 4.17 µM. It also gave a TGI (SW-620 colon) of 18.1 µM, a GI50 (HOP-62 NSCLC) of over 100 µM and a TGI (HOP-62 NSCLC) of over 100 µM. For the same compound, the GI50 (OVCAR-3 ovarian) was 10.5 µM, the TGI (OVCAR-3 ovarian) was 24.4 µM and the GI50 (MDA-MB-231 breast) was 25.4 µM. It also gave a TGI (MDA-MB-231 breast) of 80.7 µM, a GI50 (UACC-257 melanoma) of 17.8 µM and a TGI (UACC-257 melanoma) of 50.4 µM. For the same compound, the GI50 (SF-539 CNS) was 17.5 µM, the TGI (SF-539 CNS) was 34.3 µM and the GI50 (OVCAR-8 ovarian) was 22.1 µM. The TGI (OVCAR-8 ovarian) was 56.5 µM, the GI50 (HCC-2998 colon) was 17.1 µM and the TGI (HCC-2998 colon) was 32.8 µM. For the same compound, the GI50 (ACHN renal) was 4.98 µM, the TGI (ACHN renal) was 16.5 µM and the GI50 (NCI-H522 lung) was 2.08 µM. For the same compound, the TGI (NCI-H522 lung) was 7.94 µM, the GI50 (UACC-62 melanoma) was 19.5 µM and the TGI (UACC-62 melanoma) was 49.6 µM. For the same compound, the GI50 (A498 renal) was over 100 µM, the TGI (A498 renal) was over 100 µM and the GI50 (MDA-MB-435) was 14.6 µM. It also gave a TGI (MDA-MB-435) of 31.2 µM, a GI50 (SN12C renal) of 14.9 µM and a TGI (SN12C renal) of 47.5 µM. It also gave a GI50 (RXF 393 renal) of 9.52 µM, a TGI (RXF 393 renal) of 22.7 µM and a GI50 (UO-31 renal) of 15.1 µM. The TGI (UO-31 renal) was 28.3 µM, the GI50 (IGROV1 ovarian) was 28.7 µM and the TGI (IGROV1 ovarian) was over 100 µM. For the same compound, the GI50 (BT-549 breast) was 13.7 µM, the TGI (BT-549 breast) was 48.8 µM and the GI50 (KM12 colon) was 29.1 µM. It also gave a TGI (KM12 colon) of over 100 µM, a GI50 (LOX IMVI melanoma) of 1.51 µM and a TGI (LOX IMVI melanoma) of 5.24 µM. The GI50 (DU-145 prostate) was 15.3 µM, the TGI (DU-145 prostate) was 28.6 µM and the GI50 (NCI/ADR-RES ovarian) was 30.8 µM. The TGI (NCI/ADR-RES ovarian) was over 100 µM, the GI50 (SK-MEL-28 melanoma) was 17.5 µM and the TGI (SK-MEL-28 melanoma) was 33.8 µM. It also gave a GI50 (786-0 renal) of 18.7 µM, a TGI (786-0 renal) of 52.4 µM and a GI50 (HT29 colon) of 12.4 µM. For the same compound, the TGI (HT29 colon) was 28.4 µM, the GI50 (HOP-92 NSCLC) was 6.29 µM and the TGI (HOP-92 NSCLC) was 19.6 µM. For the same compound, the GI50 (TK-10 renal) was 22.1 µM, the TGI (TK-10 renal) was 63.2 µM and the GI50 (A549 NSCLC) was 71.7 µM. For the same compound, the TGI (A549 NSCLC) was over 100 µM, the GI50 (PC-3 prostate) was 19.4 µM and the TGI (PC-3 prostate) was 53.6 µM. The GI50 (HS 578T breast) was 23.1 µM, the TGI (HS 578T breast) was 87.2 µM and the GI50 (HCT-15 colon) was 5.32 µM. The TGI (HCT-15 colon) was 25.8 µM, the GI50 (MALME-3M melanoma) was 10.8 µM and the TGI (MALME-3M melanoma) was 32 µM. For the same compound, the GI50 (SNB-75 CNS) was 18.3 µM, the TGI (SNB-75 CNS) was 43.8 µM and the GI50 (COLO 205 colon) was 2.67 µM. The TGI (COLO 205 colon) was 7.1 µM, the GI50 (NCI-H460 lung) was 26.6 µM and the TGI (NCI-H460 lung) was over 100 µM. It also gave a GI50 (SF-268 CNS) of 26.6 µM, a TGI (SF-268 CNS) of over 100 µM and a GI50 (CAKI-1 renal) of 7.37 µM. It also gave a TGI (CAKI-1 renal) of 20.3 µM.
